# Data: patent US20240229098A1, “BIOLUMINOGENIC ASSAY FOR DRUG-RESISTANCE BACTERIA DETECTION” (priority 2021, published 2024)
# “Also recorded” adds a separate entry of the source.
# Tests used:
# [1] = system: E. coli/TEM; assay: Inhibitor test with E. coli/TEM and D-Bluco; details: D-Bluco 10 μM, no inhibitor
# [2] = system: E. coli/TEM lysate; assay: Bioluminescence with bacterial lysate compared to intact bacteria, E. coli/TEM; type: cell-based, Escherichia coli; details: CHAPS lysis
# [3] = biological target: T1, TEM-1 (Escherichia coli, UniProt P62593); type: biochemical; parameters: made in house; details: 10 μM probe
# Method: RLU indicates relative light units.
# (§1) FIGS. 9A and 9B illustrates bioluminescent studies of D-Bluco and O-Bluco treating with various β-lactamases. 10 μM of Bluco, D-Bluco and O-Bluco incubated with 20 nM TEM-1 for 15 min in PBS at r.t. The bioluminescent signals for each compound was evaluated with or without the addition of TEM-1 by a luminator. […] The relative bioluminescent was calculated by removing background signal in PBS.
# The bioluminescence emission from the released D-luciferin was measured. […] Also evaluated was whether there was interference between luciferase and β-lactamases in such dual enzyme reaction system.
# The signal to background ratio for D-Bluco, O-Bluco, and Bluco was measured following the addition of the firefly luciferase (fLuc).
# (§2) The caged luciferin probes were incubated with different concentrations of TEM-1 β-lactamase or IMP-1 carbapenemase (0.001-0.1 fmol) in PBS (pH=7.4) for 2 hr at 25° C. Then a mixture of luciferase (200 nM), ATP (2 mM), and MgCl2 (4 mM) was added, and bioluminescent signals were detected with a SpectraMax microplate reader or a luminator.
# [4] = system: E. coli/NDM lysate; assay: Bioluminescence with bacterial lysate compared to intact bacteria, E. coli/NDM; details: CHAPS lysis
# Method: (§3) To evaluate whether releasing β-lactamases from periplasm could improve detection sensitivity, the bacteria were lysed.
# (§4) Two clinically significant isolates K. pneumoniae expressing KPC carbapenemase (K. pneumoniae/KPC) and E. coli expressing New Delhi metallo β-lactamase (E. coli/NDM) were evaluated.
# (§5) Bacteria was mixed with 0.5% CHAPS lysis buffer for 15 min, and then incubated with D-Bluco at room temperature for another 15 min. The resulted mixture was combined with assay buffer which contains MgCl2, CoA, ATP, and luciferase for immediate bioluminescent reading.
# [5] = system: KPC-3, BlaC, TEM-1, IMP-1, AmpC, OXA-48; assay: Bioluminescence with panel of recombinant β-lactamases of clinical relevance; type: biochemical
# Method: as §1
# Having confirmed the quenching ability of dabcyl to lower D-Bluco bioluminescent background emission, the activity of D-Bluco towards a variety of β-lactamases that are of clinical relevance in addition to TEM-1, including KPC-3, BlaC (Class A), AmpC (Class C), and OXA-48 (Class D) was then assessed. These enzymes were recombinantly expressed and purified. The bioluminescent signal was measured with an IVIS optical imaging system after treating D-Bluco with each enzyme for 2 hours at room temperature.
# D-Bluco and O-Bluco were evaluated with various β-lactamase that of clinical relevance (FIG. 9B and 9C), including KPC-3, BlaC, TEM-1 (Class A), IMP-1 (Class B), AmpC (Class C), and OXA-48 (Class D). These enzymes were recombinantly expressed, purified as previously described^25. The bioluminescent signal was measured after incubating O-Bluco or D-Bluco with each enzyme at different concentrations for 2 hr at r.t. […] This compares favorably to previously reported fluorescent cephalosporin probe with a 1000-fold sensitivity improvement.^26
# as §2
# [6] = biological target: KPC-3 (Klebsiella pneumoniae, UniProt Q9F663, H272Y); assay: Limit of detection of recombinant β-lactamase by bioluminescence (KPC-3); type: biochemical; details: 2 hours, room temperature; 3 SD of negative control
# [7] = biological target: T1, TEM-1; assay: Fluorescence turn-on of caged luciferin probes with recombinant TEM-1 bla; type: biochemical; parameters: made in house
# Method: D-Bluco was evaluated as to whether it could be processed by β-lactamase to release luciferin with one of the most prevalent Ambler class A β-lactamases, TEM-1.
# Both probes were evaluated to with TEM-1 bla, one of the most abundant β-Lactamases for initial testing. The fluorescent signal of D-Bluco and O-Bluco incubated with 100 nM TEM-1 bla was examined with a microplate reader over a period of 40 minutes.
# General information: All chemicals were purchased from commercial sources and used without further purification. […] QuantiLum Recombinant luciferase (catalog number E1701) was purchased from Promega (Madison, WI). Reaction progress was monitored by analytical thin layer chromatography (TLC) with 0.25 mm silica gel 60F plates and visualized with fluorescent indicator (254 nm). Flash column chromatography was conducted using silica gel (SiliaFlash for flash column, 40-63 μm, 60 Å). The ^1H and ^13C NMR spectra were acquired on a Varian 500 MHz or 600 MHz magnetic resonance spectrometer. Data for ^1H NMR spectra are reported as follows: chemical shifts are reported as δ in units of parts per million (ppm) relative to chloroform-d (δ 7.26, s); multiplicities are reported as follows: s (singlet), d (doublet), t (triplet), q (quartet), dd (doublet of doublets), m (multiplet), or br (broadened); coupling constants are reported as a J value in Hertz (Hz); and the number of protons (n) for a given resonance is indicated nH and based on the spectral integration values. High resolution mass spectra were obtained on a Thermo Exactive Orbitrap LC/MS. HPLC was performed on a Dionex HPLC System (Dionex Corporation) equipped with a GP50 gradient pump and an inline diode array UV-Vis detector. A reversed-phase C18 (Phenomenax, 5 μm, 10×250 mm or Dionex, 5 μm, 4.6×250 mm) column was used with a MeCN (B)/H2O (A) gradient mobile phase containing 0.1% trifluoroacetic acid at a flow of 1 or 3 mL/min for the analysis. Fluorescence Spectra and kinetic experiments were collected by a SpectraMax iD3 multimode microplate reader (Molecular Device, San Jose, CA).
# [8] = biological target: T2, BlaC (Mycobacterium tuberculosis, UniProt P9WKD3); assay: Limit of detection of recombinant β-lactamase by bioluminescence (BlaC); type: biochemical; details: 2 hours, room temperature; 3 SD of negative control
# T2 construct: made in house
# [9] = system: K. pneumoniae/KPC lysate; assay: Bioluminescence with bacterial lysate compared to intact bacteria, K. pneumoniae/KPC; details: CHAPS lysis
# Method: as §3, §4, §5
# [10] = biological target: T3, OXA-48 (Klebsiella pneumoniae, UniProt Q6XEC0); assay: Limit of detection of recombinant β-lactamase by bioluminescence (OXA-48); type: biochemical
# T3 construct: made in house
# [11] = biological target: T4, firefly luciferase (Photinus pyralis, UniProt P08659); assay: Background bioluminescence and oxidation of pro-luciferin probes on repeated addition of firefly luciferase; type: biochemical
# T4 construct: purchased Promega E1701
# Method: The initial bioluminescent background signal may come from residual D-luciferin present in the sample. High-performance liquid chromatography (HPLC) analysis could not detect any D-luciferin at a concentration below 0.1 μM. However, addition of firefly luciferase can efficiently detect and consume the residual free D-luciferin.
# To further confirm the quenching effect of dabcyl in D-Bluco, another control, Am-Bluco, was prepared that is structurally similar to D-Bluco but with dabcyl replaced by a structure lacking the broad absorption between 400 and 530 nm (FIG. 1).
# T1 sequence (P62593 24-286 limits assumed): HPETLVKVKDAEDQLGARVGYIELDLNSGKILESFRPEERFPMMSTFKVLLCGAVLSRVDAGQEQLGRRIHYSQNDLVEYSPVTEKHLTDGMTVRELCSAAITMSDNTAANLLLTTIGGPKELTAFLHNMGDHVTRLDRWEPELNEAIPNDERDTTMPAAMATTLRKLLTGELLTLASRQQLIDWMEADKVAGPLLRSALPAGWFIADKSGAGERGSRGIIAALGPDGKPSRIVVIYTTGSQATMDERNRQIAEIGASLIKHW
# T4 sequence (P08659 whole entry): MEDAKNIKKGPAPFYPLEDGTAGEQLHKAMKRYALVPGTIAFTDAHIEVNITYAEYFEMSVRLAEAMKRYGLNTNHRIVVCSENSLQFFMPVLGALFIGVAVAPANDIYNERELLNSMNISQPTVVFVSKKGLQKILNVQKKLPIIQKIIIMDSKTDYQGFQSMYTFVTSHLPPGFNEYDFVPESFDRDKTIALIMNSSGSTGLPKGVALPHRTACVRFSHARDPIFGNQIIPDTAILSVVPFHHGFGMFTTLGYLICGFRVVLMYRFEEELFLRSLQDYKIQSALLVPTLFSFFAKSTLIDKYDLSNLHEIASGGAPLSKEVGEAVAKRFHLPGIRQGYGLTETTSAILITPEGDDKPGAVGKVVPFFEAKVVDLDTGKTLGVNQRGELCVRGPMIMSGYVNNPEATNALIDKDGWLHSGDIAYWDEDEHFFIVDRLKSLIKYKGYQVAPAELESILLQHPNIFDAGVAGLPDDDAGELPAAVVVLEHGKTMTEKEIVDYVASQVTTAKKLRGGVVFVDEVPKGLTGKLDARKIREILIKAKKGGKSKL
# T3 sequence (Q6XEC0 23-265 limits assumed): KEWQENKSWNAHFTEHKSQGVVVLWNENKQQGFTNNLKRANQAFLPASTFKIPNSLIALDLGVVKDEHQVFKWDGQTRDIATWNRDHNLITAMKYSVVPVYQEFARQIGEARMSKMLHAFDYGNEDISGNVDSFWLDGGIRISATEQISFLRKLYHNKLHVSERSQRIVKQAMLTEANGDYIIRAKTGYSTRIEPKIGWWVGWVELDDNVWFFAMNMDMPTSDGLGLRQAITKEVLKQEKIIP
# Sequence of KPC-3 (Q9F663 25-293 H272Y): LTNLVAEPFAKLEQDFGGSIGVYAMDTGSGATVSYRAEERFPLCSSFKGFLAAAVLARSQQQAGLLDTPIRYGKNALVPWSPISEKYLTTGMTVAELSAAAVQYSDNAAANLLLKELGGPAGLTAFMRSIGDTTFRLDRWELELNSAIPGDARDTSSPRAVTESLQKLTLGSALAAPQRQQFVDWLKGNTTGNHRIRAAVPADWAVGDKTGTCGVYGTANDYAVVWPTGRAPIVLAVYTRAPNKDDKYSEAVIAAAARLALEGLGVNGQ
# T2 sequence (P9WKD3 35-307): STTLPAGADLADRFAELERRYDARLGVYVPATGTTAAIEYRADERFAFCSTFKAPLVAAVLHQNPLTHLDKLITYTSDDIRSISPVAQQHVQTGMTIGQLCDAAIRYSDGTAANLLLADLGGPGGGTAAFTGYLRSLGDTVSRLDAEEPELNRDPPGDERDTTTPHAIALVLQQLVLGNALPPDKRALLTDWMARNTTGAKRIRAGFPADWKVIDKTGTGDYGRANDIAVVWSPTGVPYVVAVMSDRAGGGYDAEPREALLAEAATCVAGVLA
structure (smiles),measurement,setting,value
"CN(C)c1ccc(/N=N/c2ccc(C(=O)NCCCCCC(=O)NC3C(=O)N4C(C(=O)O)=C(COc5ccc6nc(C7=N[C@@H](C(=O)O)CS7)sc6c5)C[S+]([O-])C34)cc2)cc1 (stereo partly drawn) [D-Bluco, 3-(((2-((S)-4-carboxy-4,5-dihydrothiazol-2-yl)benzo[d]thiazol-6-yl)oxy)methyl)-7-(6-(4-((E)-(4-(dimethylamino)phenyl)diazenyl)benzamido)hexanamido)-8-oxo-5-thia-1-azabicyclo[4.2.0]oct-2-ene-2-carboxylic acid 5-oxide]",increase of bioluminescent intensity of E. coli/TEM-1 treated with probe over PBS,[1],260 fold
same,signal enhancement with lysate compared to intact bacteria,[2],52 fold
same,"fold increase in bioluminescence emission upon TEM-1 treatment (turn-on ratio, signal with TEM-1 over signal without TEM-1)","[3]; TEM-1 20 nM, 15 min, PBS pH 7.4, r.t.",1420 fold
same,initial bioluminescent background signal without TEM-1,[3]; without TEM-1,significantly lower than that of Bluco; also recorded: lowest background signal
same,signal enhancement with lysate compared to intact bacteria,[4],145 fold
same,lowest detectable β-lactamase activity,[5],10-18 moles
same,detection limits for the panel of enzymes,"[5]; KPC-3, BlaC, TEM-1, IMP-1, AmpC, OXA-48, 2 hr at r.t.",within the femtomole range
same,"bioluminescence triggered by β-lactamases TEM-1, KPC-3, BlaC, AmpC, OXA-48","[5]; each enzyme 2 hours at room temperature, IVIS imaging",significant bioluminescence
same,limit of detection (LOD) of KPC-3 (all other β-lactamases),[6],0.001 femtomole
same,fold increase in fluorescence emission in the presence of TEM-1,"[7]; 1 μM probe, TEM-1 100 nM, 40 min, PBS pH 7.4, r.t., excitation 330 nm, emission 530 nm",37.6 fold
same,time of rapid fluorescence intensity increase before plateau,"[7]; TEM-1 bla 100 nM, monitored over 40 minutes",≤ 10 min
same,fluorescence emission in the absence of TEM-1,"[7]; without TEM-1, excitation 330 nm, emission 530 nm",little emission
same,limit of detection (LOD) of BlaC (all other β-lactamases),[8],0.001 femtomole
same,signal enhancement with lysate compared to intact bacteria,[9],141 fold
same,efficiency of OXA-48 in hydrolyzing the probe,[10],low efficiency
same,limit of detection (LOD) of OXA-48,"[10]; 2 hours, room temperature, 3 SD of negative control (D-Bluco in PBS)",0.1 femtomole
same,oxidation of probe incubated with firefly luciferase (mass spectrometry),[11]; incubated with firefly luciferase,oxidized
same,bioluminescence emission on additional batches of firefly luciferase,"[11]; repeated firefly luciferase addition, no β-lactamase",no further bioluminescence emission was detected
